Consider one molecule from PMC6332596 (Journal of Hematology & Oncology, 2019).

Experiment [1] deals with off-target non-receptor kinases, proteins, GPCR, and ion channels. Further details: method as in PMID 28004478. To be noted: cited from earlier work.
In a further experiment the test system is CSF-1R. Further details: method as in PMID 28004478. To be noted: cited from earlier work.
Experiment [2] relates to advanced solid tumor and lymphoma. The experiment is described as follows: Tumor response by RECIST 1.1 in patients. It counts as in vivo, human. As to the method: Tumor response was evaluated by the Response Evaluation Criteria in Solid Tumors (RECIST) version 1.1. Tumor response was assessed by computed tomography (CT) and/or magnetic resonance imaging (MRI) scans at screening and every 8 weeks (2 cycles) during the first 12 cycles.

Entries after “also recorded” stand apart in the source; their conditions may differ.

As to `COc1ccc2c(Oc3ccc4c(C(=O)Nc5ccccc5N)cccc4c3)ccnc2c1` [chiauranib], the activity on off-targets result in experiment [1] was “little activity”. In addition, the IC50 entry in the experiment with CSF-1R is “single-digit nanomolar range”. Besides, in experiment [2] (6/18 patients pretreated with anti-angiogenic agents), the “patients achieving SD among six with prior anti-angiogenic agents” value is “five”. Also, the “stable disease (SD) as best response” value in experiment [2] (12 of 18 patients, investigator's assessment) is 66.7%. Moreover, in experiment [2] (18 patients), the “complete or partial response” value is reported as “No complete or partial responses were observed; also recorded: No partial or complete response was observed”. The “duration of confirmed SD” value in experiment [2] (one patient with DLBCL, 10 mg cohort) was 596 days. Also, the “change in the sum of the longest diameters of target lesions at best response” value in experiment [2] (one patient with ovarian cancer (65 mg cohort)) worked out at 22.2%.
